Patent US20050009792A1, “(20S)-1alpha-hydroxy-2-methylene-19-nor-vitamin D3 and its uses” (priority 2003, published 2005)

What was measured:
[1] = test system: intestinal calcium transport; test: Intestinal calcium transport in rats on low calcium diet; format: in vivo, Sprague-Dawley rats; settings: for Ca transport S/M (mean ± SEM): daily for 7 days, male weanling rats, 0.02% Ca diet
Description: Intestinal calcium transport was carried out as described by Penman et al (Biochemistry 29, 190-196,1990).
(§1) Male, weanling Sprague-Dawley rats were placed on Diet 11 (0.47% Ca) diet+AEK for 11 days, followed by Diet 11 (0.02% Ca)+AEK for 31 days. Dosing (i.p.) began 7 days prior to sacrifice. Doses were given on a daily basis, 24 hours apart. The first 10 cm of the intestine was collected for gut transport studies and serum was collected for bone Ca mobilization analysis.

[2] = test system: bone calcium mobilization; test: Serum calcium (bone calcium mobilization) in rats on low calcium diet; format: in vivo, Sprague-Dawley rats; settings: for Serum Ca (mean ± SEM): daily for 7 days, male weanling rats, 0.02% Ca diet
Description: as §1

[3] = target: T1, vitamin D pig intestinal nuclear receptor (Sus scrofa, UniProt A3RGC1); settings: Ostrem et al. J. Biol. Chem. 262, 14164-14171, 1987; cited from earlier work
T1 construct: from tissue; host or cells: pig intestine (nuclear receptor preparation)
T1 sequence (A3RGC1 1-427): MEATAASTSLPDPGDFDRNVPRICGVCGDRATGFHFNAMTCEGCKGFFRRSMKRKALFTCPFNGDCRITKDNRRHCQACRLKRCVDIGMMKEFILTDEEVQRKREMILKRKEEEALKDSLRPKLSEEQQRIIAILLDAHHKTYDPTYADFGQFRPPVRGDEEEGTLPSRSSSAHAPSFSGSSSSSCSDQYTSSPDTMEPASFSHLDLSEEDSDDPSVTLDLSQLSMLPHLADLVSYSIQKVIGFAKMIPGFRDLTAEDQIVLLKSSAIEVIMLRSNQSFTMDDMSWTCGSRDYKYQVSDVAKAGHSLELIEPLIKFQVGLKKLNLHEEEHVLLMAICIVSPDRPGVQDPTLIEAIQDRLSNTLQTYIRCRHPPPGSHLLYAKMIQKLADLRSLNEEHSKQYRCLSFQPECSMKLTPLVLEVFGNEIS

[4] = target: T1, vitamin D pig intestinal nuclear receptor; test: Competitive binding of [3H]-1,25-(OH)2-D3 to the porcine intestinal vitamin D receptor
Description: FIG. 1 is a graph illustrating the relative activity of (20S)-1α-hydroxy-2-methylene-19-nor-vitamin D3 and 1α,25-dihydroxyvitamin D3 to compete for binding of [^3H]-1,25-(OH)2-D3 to the vitamin D pig intestinal nuclear receptor; and
Competitive binding of the analog to the porcine intestinal receptor was carried out by the method described by Dame et al. (Biochemistry 25, 4523-4534, 1986).

HL-60 cells = test: Differentiation of HL-60 promyelocytes into monocytes; format: cell-based; settings: FIG. 2
Description: FIG. 2 is a graph illustrating the percent HL-60 cell differentiation as a function of the concentration of (20S)-1α-hydroxy-2-methylene-19-nor-vitamin D3 and of 1,25-dihydroxyvitamin D3
The differentiation of HL-60 promyelocytic into monocytes was determined as described by Ostrem et al (J. Biol. Chem. 262, 14164-14171, 1987).

Row | SMILES | Ca transport S/M (mean ± SEM) ([1]; 260 pmol/day i.p.) | Serum Ca (mean ± SEM) ([2]; 260 pmol/day i.p.) | decrease in binding activity resulting from lack of a 25-hydroxyl [3] [fold] | ability to bind the vitamin D receptor relative to 1,25-dihydroxyvitamin D3 ([4]; FIG. 1) | ability to bind the vitamin D receptor relative to 1,25-dihydroxyvitamin D3 ([4]; FIG. 1, listed as 2-Methylene-19-nor-(20S)-1α-hydroxyvitamin D3) | potency on HL-60 differentiation relative to 1,25-(OH)2D3 (HL-60 cells; listed as (20S)-1α-Hydroxy-2-methylene-19-nor-vitamin D3) | potency on HL-60 differentiation relative to 1,25-(OH)2D3 (HL-60 cells; listed as (20S)-1α-hydroxy-2-methylene-19-nor-vitamin D3) | Ca transport S/M (mean ± SEM) ([1]; 130 pmol/day i.p.) | activity in stimulating intestinal calcium transport relative to 1,25-(OH)2D3 ([1]; statement in words on Table 1) | Serum Ca (mean ± SEM) ([2]; 130 pmol/day i.p.) | bone calcium mobilization activity relative to 1,25-(OH)2D3 ([2]; statement in words on Table 1)
1 | C=C1/C(=C\C=C2/CCC[C@]3(C)[C@@H]([C@H](C)CCCC(C)(C)O)CC[C@@H]23)C[C@@H](O)C[C@@H]1O [1α,25-(OH)2D3, 1α,25-dihydroxyvitamin D3, reference compound] | 7.7 ± 0.52 | 6.25 ± 0.19 | – | – | – | – | – | – | – | – | –
2 | C=C1/C(=C\C=C2/CCC[C@]3(C)[C@@H]([C@H](C)CCCC(C)C)CC[C@@H]23)C[C@@H](O)C[C@@H]1O [1α-hydroxyvitamin D3] | – | – | 100 | – | – | – | – | – | – | – | –
3 | C=C1[C@H](O)CC(=C/C=C2\CCC[C@@]3(C)C2CCC3[C@@H](C)CCCC(C)C)C[C@H]1O (stereo partly drawn) [(20S)-1α-(OH)-2-methylene-19-nor-D3, (20S)-1α-hydroxy-2-methylene-19-nor-vitamin D3] | 10.0 ± 0.59 | 12.60 ± 0.54 | – | only a little less activity than 1,25(OH)2D3 | only one-tenth that of 1,25-dihydroxyvitamin D3 | more active than 1,25-(OH)2D3 | more potent than 1,25-(OH)2D3 | 10.1 ± 0.68 | higher activity as compared to that of 1,25-(OH)2D3 | 9.63 ± 0.12 | higher bone calcium mobilization activity, as compared to 1,25-(OH)2D3
